Measured values: PMC7938888, “Antidepressant drugs act by directly binding to TRKB neurotrophin receptors” (Cell, 2021)
Where “and” joins values, the source holds several entries; their conditions need not be identical. Equal values may be shown once. Entries after “also recorded” stand apart in the source; their conditions may differ. Read-outs that look alike come from different tables or passages of the source.

Legend:
surface TRKB = assay: Surface TRKB ELISA in MG87.TRKB cells; assay type: cell-based, mouse; conditions: cholesterol 20 μM/15 min
Experimental: The surface levels of TRKB were also determined by ELISA ([Zheng et al., 2008]). Briefly, the MG87.TRKB cells or primary cortical cells from rat or mouse embryos, cultivated in clear bottom 96-well plates (ViewPlate 96, Perkin Elmer), were washed with ice-cold PBS and fixed with 100μl of 4% PFA per well. After washing with PBS and blocking with PBS containing 5% nonfat dry milk and 5% BSA, the samples were incubated with primary anti-TRKB antibody (R&D Systems, #AF1494, 1:1000 in blocking buffer) or anti-GluR1 subunit of AMPA receptors (CST, #8850, 1:2000 in blocking buffer) ON at 4°C. Following washing, the samples were incubated with HRP-conjugated anti-goat or anti-rabbit IgG (1:5000 in blocking buffer) for 1h at RT. The cells were washed 4x with 200μl of PBS for 10 min each. Finally, the chemiluminescent signal generated by reaction with ECL was analyzed in a plate reader.

TRKA:PLC-γ1 coupling = assay: TRKA:PLC-γ1 interaction ELISA in MG87 cells expressing TRKA; assay type: cell-based, mouse
[1] = prefrontal cortex, individual mice; for FLX uM**: fluoxetine MW 309g/mol
mice = assay: Object location memory (OLM) test; assay type: in vivo, mouse
Experimental: Object-location memory (OLM): this test was performed in a square arena (28cm side) with opaque walls containing cues (black stripes or spots). The adult male and female mice (18-22 weeks old) were placed for 3 consecutive days (15min per session) in the arena with two identical objects (table tennis balls glued to caps of 50ml Falcon tubes) in the same position throughout the sessions (pretest).

[2] = system: GluR1 subunit of AMPA receptors; assay: Surface GluR1 ELISA in rat cortical cells; assay type: cell-based
Experimental: (§1) Briefly, the MG87.TRKB cells or primary cortical cells from rat or mouse embryos, cultivated in clear bottom 96-well plates (ViewPlate 96, Perkin Elmer), were washed with ice-cold PBS and fixed with 100μl of 4% PFA per well. […] Following washing, the samples were incubated with HRP-conjugated anti-goat or anti-rabbit IgG (1:5000 in blocking buffer) for 1h at RT. The cells were washed 4x with 200μl of PBS for 10 min each. Finally, the chemiluminescent signal generated by reaction with ECL was analyzed in a plate reader.

TRKB/TRKA.TM = assay: Cell-free ligand binding assay, chimeric TRKB with TMD of TRKA; conditions: biotinylated fluoxetine
[3] = system: GluR1 subunit of AMPA receptors; assay: Surface GluR1 ELISA in cortical cells of TRKB.Y433F mice; assay type: cell-based, mouse
Experimental: as §1

TRKB.Y433F = target: T1, TRKB.Y433F (Mus musculus, UniProt P15209, Y433F); assay: Cell-free ligand binding assay, TRKB.Y433F mutant; conditions: TRKB.Y433F; read-out: binding affinity of BDNF
T1 construct: wild-type GFP-tagged full length TRKB or the GFP-tagged Y433F TRKB mutant; host or cells: HEK293T
Experimental: The cell-free assays (binding assays) were performed in white 96-well plates, based on the protocol used for western-blotting or ELISA ([Baeza-Raja et al., 2016]; [Das et al., 2015]). The plates were precoated with anti-GFP, anti-FLAG, anti-TRK or anti-TRKB antibody (1:1000) in carbonate buffer (pH 9.8), ON at 4°C. Following blocking with 3% BSA in PBS buffer (2 h at RT), 120 ug of total protein from each sample (of lysates from HEK293T cells transfected to overexpress GFP-TRKB.wt or GFP-TRKB.Y433F) were added and incubated overnight at 4°C under agitation. […] The luminescence was determined via HRP-conjugated streptavidin (1:10000, 1h, RT) activity reaction with ECL by a plate reader. The luminescence signal from blank wells (containing all the reagents but the sample lystates, substituted by the blocking buffer) was used as background. The specific signal was then calculated by subtracting the values of blank wells from the values of the samples with matched concentration of the biotinylated ligand. For Figure 2E, the precipitated TRKB.wt or Y433F was incubated with tritiated imipramine (0-30μM) and the radioactive emission of the ligand was determined by scintillation (OptiPhase Supermix cocktail: #1200-439; MicroBeta2, Perkin-Elmer). The scintillation signal from blank wells was used as background, and the specific signal was then calculated by subtracting the values of blank wells from the values of the samples with matched concentration of the radioactive ligand.

Sprague-Dawley rats = assay: BDNF-induced LTP in dentate gyrus of anesthetized rats; assay type: in vivo, rat; conditions: anesthetized rats, 2 μl of 1 ug/ul over 30 min
Experimental: In vivo electrophysiology. Intrahippocampal BDNF infusion was performed as described previously ([Messaoudi et al., 1998]). The experiments were carried out on 20 adult male Sprague-Dawley rats (15 weeks old, Janvier, France). Rats were housed in the animal facility for 1-week prior to the start of drug administration. […]
For electrophysiological experiments, rats were anesthetized with an intraperitoneal injection of urethane (U2500, Sigma-Aldrich) 1.5 g/kg body weight, positioned in a stereotaxic frame. The body temperature was constantly monitored and maintained at 37°C with an electric heating pad. Holes were drilled in the skull and a concentric bipolar stimulating electrode (Tip separation 500micrometers; SNEX 100; Rhodes Medical Instruments, Woodland Hills, CA) was positioned in the angular bundle for stimulation of the medial perforant path (7.9 mm posterior to bregma, 4.2 mm lateral to the midline, and 2.5 mm below the dura. […]
Responses were allowed to stabilize for 1 hour at a stimulation intensity that produced a population spike 30% of maximum. […] Evoked responses were recorded for 120 min post infusion. Recorded field potentials were amplified, filtered (0.1 Hz to 10 kHz), and digitized (25 kHz). Electrophysiological data was analyzed using Datawave Technologies Software company. […]

T1 sequence (P15209 32-821 Y433F): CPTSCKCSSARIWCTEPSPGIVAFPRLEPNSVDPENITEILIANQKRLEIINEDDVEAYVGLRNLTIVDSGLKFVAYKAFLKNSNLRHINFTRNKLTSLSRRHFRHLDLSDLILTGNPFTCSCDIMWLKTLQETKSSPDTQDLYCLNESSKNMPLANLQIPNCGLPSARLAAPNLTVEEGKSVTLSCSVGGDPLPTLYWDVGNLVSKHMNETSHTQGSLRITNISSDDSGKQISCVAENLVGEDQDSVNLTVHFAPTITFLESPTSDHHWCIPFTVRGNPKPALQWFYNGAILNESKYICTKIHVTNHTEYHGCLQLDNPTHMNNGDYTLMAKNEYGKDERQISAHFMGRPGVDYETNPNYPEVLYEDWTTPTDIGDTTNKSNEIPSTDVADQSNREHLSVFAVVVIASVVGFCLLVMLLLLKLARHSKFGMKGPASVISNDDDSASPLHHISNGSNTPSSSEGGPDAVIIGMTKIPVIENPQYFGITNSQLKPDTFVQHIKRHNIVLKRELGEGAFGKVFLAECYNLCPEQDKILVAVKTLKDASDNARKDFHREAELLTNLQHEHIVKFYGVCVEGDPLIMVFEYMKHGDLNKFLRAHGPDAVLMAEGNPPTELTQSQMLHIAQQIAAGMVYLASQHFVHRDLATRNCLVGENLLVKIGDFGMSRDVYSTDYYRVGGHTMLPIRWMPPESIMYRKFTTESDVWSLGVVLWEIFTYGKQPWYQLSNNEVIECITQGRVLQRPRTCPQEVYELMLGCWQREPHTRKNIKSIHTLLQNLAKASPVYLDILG

CC(C)CCC[C@@H](C)[C@H]1CC[C@H]2[C@@H]3CC=C4C[C@@H](O)CC[C@]4(C)[C@H]3CC[C@]12C [CHOL, cholesterol]
cell surface translocation of TRKB (surface TRKB): increased cell surface translocation of TRKB | cholesterol-induced TRKA:PLC-γ1 coupling (TRKA:PLC-γ1 coupling): Lack of effect

CNCCC(Oc1ccc(C(F)(F)F)cc1)c1ccccc1 (stereo not shown) [FLX, fluoxetine]
FLX ([1]; genotype het, 15mg/kg in drinking water 21 days, 15 mg/kg): 1.368 µg/mL and 0.379 µg/mL and 2.739 µg/mL | FLX ([1]; genotype het, brain density 1.045g/ml): 9.69 µg/mL and 6.28 µg/mL and 21.21 µg/mL | FLX uM** ([1]; genotype het): 31.36 µM and 20.34 µM and 68.63 µM | FLX ug/g wet tissue ([1]; genotype het): 9.273 ug/g wet tissue and 6.013 ug/g wet tissue and 20.292 ug/g wet tissue | FLX ([1]; genotype wt, 15mg/kg in drinking water 21 days, 15 mg/kg): 1.575 µg/mL and 1.642 µg/mL and 1.024 µg/mL and 1.497 µg/mL and 0.393 µg/mL | FLX ([1]; genotype wt, brain density 1.045g/ml): 4.03 µg/mL and 11.14 µg/mL and 6.93 µg/mL and 10.29 µg/mL and 9.31 µg/mL | FLX uM** ([1]; genotype wt): 13.04 µM and 36.06 µM and 22.42 µM and 33.30 µM and 30.13 µM | FLX ug/g wet tissue ([1]; genotype wt): 3.856 ug/g wet tissue and 10.662 ug/g wet tissue and 6.629 ug/g wet tissue and 9.846 ug/g wet tissue and 8.908 ug/g wet tissue | response in OLM test (mice; BDNF haploinsufficient mice): lack of response | long-term memory in OLM test (mice; TRKB.wt mice, FLX 15 mg/kg/day for 7 days): facilitated long-term memory | response in OLM test (mice; animals co-treated with pravastatin): lack of response | response in OLM test (mice; serotonin transporter knockout (5HTT.ko) mice): responded to FLX treatment normally | cell surface localization of GluR1 subunits of AMPA receptors [2]: increased cell surface localization of GluR1 subunits | binding to chimeric TRKB with the TMD of TRKA (TRKB/TRKA.TM): failed to bind; also recorded: very low | increase in surface GluR1 in neurons from TRKB.Y433F mutant mice [3]: prevented

B1: BDNF: brain-derived neurotrophic factor, TRKB ligand (protein, UniProt P23560 19-247, looked up)
Neurotrophic factor BDNF …: APMKEANIRGQGGLAYPGVRTHGTLESVNGPKAGSRGLTSLADTFEHVIEELLDEDQKVRPNEENNKDADLYTSRVMLSSQVPLEPPLLFLLEEYKNYLDAANMSMRVRRHSDPARRGELSVCDSISEWVTAADKKTAVDMSGGTVTVLEKVPVSKGQLKQYFYETKCNPMGYTKEGCRGIDKRHWNSQCRTTQSYVRALTMDSKKRIGWRFIRIDTSCVCTLTIKRGR
Kd (TRKB.Y433F): 2.9 pM | synaptic strength after infusion into the dentate gyrus (Sprague-Dawley rats): significantly increased synaptic strength
